Measured values: US20250312269A1, “ADMINISTRATION OF A P[…] BY INT[…]” (RESET PHARMACEUTICALS, INC., priority 2022, published 2025)
Read-outs that look alike come from different tables or passages of the source.

Columns and labels:
[1] = One-compartment IM PK model fitted to published DMT IM data; design: species or system human; details: estimate (95% CI)
Description: (§1) DMT IM data was digitised from Kaplan et al. “Blood and urine levels of N,N-dimethyltryptamine following administration of psychoactive dosages to human subjects” Psychopharmacologia 38, 239-245 (1974). A one compartment model was used with linear absorption and clearance to describe the human IM data from Kaplan et al. 1974, and is shown schematically in FIG. 3. Mathematically, this model is a series of two linked ordinary differential equations (ODE's) given in equations (7)-(8).
Constant ka is the absorption rate constant (units 1/min), Cl is the clearance (units mL/min), Vc is the volume of distribution of the central compartment (units mL).
The model gives a satisfactory fit of the absorption phase, seen in FIG. 5, where the line is the simulate PK model and the points are the raw data. The fitted PK parameters can be found in Table 3.

[2] = Non-compartmental analysis of DMT IM bioavailability from digitised published data; format: in vivo; details: human, blood, intramuscular, 0.7 mg/kg, 0.7 mg/kg IM
Description: as §1
The points are the mean data, and the error bars are plus and minus the SEM. Non-compartmental analysis (NCA) was run to calculate the dose normalised AUC at four dose levels. The bioavailability of the IM data was then calculated, equation (3), at all four dose levels seen in Table 2, due to the IM dose being 0.7 mg/kg the 0.4 mg/kg bioavailability values were taken and therefore bioavailability was assumed to be one for the rest of the modelling.

[3] = Particle size distribution (PSD) analysis by laser diffraction of feed and micronised compound; format: physicochemical; details: primary pressure of 4 bar, lens R1/R3/R5 per sample
Description: In order to provide a small and homogeneous particle size of psychedelic compound in the final suspensions, psilocybin and psilocin were micronised before use. Micronisation was performed by wet bead milling using decafluoropentane as the antisolvent. In a glass vial, 200 mg psychedelic compound and 2 g of 1 mm silica beads were weighed. 3 mL of the antisolvent was added for psilocybin and 2 mL for psilocin. The samples were vortexed for approximately 15 seconds then milled at 530 rpm for 60 minutes.
(§2) The micronised sample was then separated from the silica beads and transferred to a petri dish and left at room temperature to allow for evaporation of the solvent overnight (approximately 18 hours). The dried sample was then collected and characterised by PSD and XRPD.
Particle size analysis was carried out, in single analysis, by laser diffraction using a Sympatec Helos particle size analyser, equipped with a RODOS dry dispersion unit and ASPIROS feeder unit. The lens and primary pressures were varied for each compound tested.

[4] = Human IM simulations of psilocin exposure, one (native) absorption rate; details: 'native' absorption rate taken from DMT IM model
Description: The model that was used is shown schematically in FIG. 6, mathematically the analytical solution is shown in equations (9)-(14).
Using the absorption rate from modelling the IM DMT data and the human systemic psilocin PK parameters, human IM simulations were run over 1-12 mg doses and the simulated PK profiles can be seen in FIG. 8. […] It was therefore investigated which dose produces the therapeutic plasma level (5 ng/mL) quickly, this can be seen in Table 4.

[5] = XRPD analysis after micronisation; format: physicochemical; details: wet bead milling in decafluoropentane
Description: as §2
X-ray powder diffraction (XRPD) analysis was carried out using a Bruker D2 Phaser powder diffractometer equipped with a LynxEye detector. The specimens were located at the centre of a silicon sample holder within a 5 mm pocket. The samples were continuously spun during data collection and scanned using a step size of 0.02° two theta (28) between […] to 60° two theta, the detailed parameters are summarised in Table 11. The data was processed using Diffrac Plus EVA software (Version 3.1).

[6] = Two-compartment IV bolus PK model fitted to published psilocin plasma data after psilocybin IV; design: species or system human; details: estimate (95% CI)
Description: All analysis was performed using the software R and RStudio, with models being defined using analytical and ODE solutions.
Systemic PK parameters were derived for published human bolus psilocybin IV data. Human IV PK data for psilocin after psilocybin was administered was taken from Hasler et al. “Determination of psilocin and 4-hydroxyindole-3-acetic acid in plasma by HPLC-ECD and pharmacokinetic profiles of oral and intravenous psilocybin in man”. Pharm Acta Helv. 1997 June; 72(3):175-84. Model selection was performed by assessing visual fit to data and the respective model AIC's of a one compartment and two compartment IV PK model. These systemic human PK parameters were then used for human intramuscular injection simulations by simulating the PK profiles over a range of doses and absorption rates.
It is assumed that the generation of psilocin is instantaneous and complete once psilocybin is absorbed.
An IV two compartment model best described the IV data from FIG. 2. A two-compartment model gave a good description of the raw data capturing the Cmax and terminal phase well, FIG. 3. The systemic PK parameters can be seen in Table 1 and there are low errors in the parameter estimates.

[7] = Solubility assessment in excipients / vehicles
[8] = cited from earlier work
[9] = IV administration; cited from earlier work

For CN(C)CCc1c[nH]c2ccccc12 [DMT, N,N-dimethyltryptamine], the ka ([1]; absorption rate constant) was 0.153 (−0.311, 0.616) ^ /min, the CI ([1]; clearance) was 21900 (4690, 39100) ml/min and the V ([1]; 0.7 mg/kg IM) was 353000 (−397000, 1100000) ml. For the same compound, the bioavailability ([2]; AUC of IV infusion dose 0.05 mg/kg) was 46.3%, the bioavailability ([2]; AUC of IV infusion dose 0.1 mg/kg) was 77.8% and the bioavailability ([2]; AUC of IV infusion dose 0.2 mg/kg) was 132%. The bioavailability ([2]; AUC of IV infusion dose 0.4 mg/kg) was 162%.

CN(C)CCc1c[nH]c2cccc(O)c12 [Feed psilocin, psilocin] gave a D10 [3] of 20.36 μm, a D50 [3] of 106.05 μm and a D90 [3] of 232.08 μm.

In the case of CN(C)CCc1c[nH]c2cccc(OP(=O)(O)O)c12 [Feed psilocybin, psilocybin], the D10 [3] is reported as 1.16 μm, the D50 [3] is reported as 5.46 μm and the D90 [3] is reported as 16.32 μm.

In the case of CN(C)CCc1c[nH]c2cccc(O)c12 [Micronised psilocin, psilocin], the D10 [3] is reported as 0.44 μm, the D50 [3] is reported as 1.07 μm and the D90 [3] is reported as 2.27 μm.

For CN(C)CCc1c[nH]c2cccc(OP(=O)(O)O)c12 [Micronised psilocybin, psilocybin], the D10 [3] was 0.45 μm, the D50 [3] was 1.20 μm and the D90 [3] was 3.13 μm.

With CN(C)CCc1c[nH]c2cccc(O)c12 [psilocin, 4-hydroxy-N,N-dimethyltryptamine] the absorption half-life [4] was 4.53 min, the “chemical degradation upon micronisation (XRPD)” value [5] was “no significant chemical degradation” and the CI ([6]; clearance, fit to 1 mg psilocybin IV data) was 3810 (3340, 4290) ml/min. For the same compound, the k21 ([6]; distribution rate from peripheral compartment) was 0.0489 (0.0388, 0.0591) /min, the k12 ([6]; distribution rate to peripheral compartment) was 0.176 (0.144, 0.208) /min and the V ([6]; volume of distribution of central compartment, fit to 1 mg psilocybin IV data) was 88600 (77300, 99900) ml. The “solubility versus pH” value ([7]; initial solution trials in aqueous vehicles) was “higher solubility at acidic pH” and the “solubility in DMSO and NMP” value ([7]; non-micronised) was “good solubility”.

In the case of CN(C)CCc1c[nH]c2cccc(OP(=O)(O)O)c12 [psilocybin, [3-(2-dimethylaminoethyl)-1H-indol-4-yl]dihydrogen phosphate], the duration ([8]; oral dosing) is given as 4 to 8 h, the “maximum effect (time)” value ([8]; oral dosing) is given as 60 to 90 min and the onset of action ([8]; oral dosing) is given as 20 to 40 min. For the same compound, the bioavailability ([8]; reported, oral dosing context) was “approximately 50%”, the “chemical degradation upon micronisation (XRPD)” value [5] was “no significant chemical degradation” and the “solubility in all the excipients tested” value ([7]; non-micronised, 20 excipients) was “poor solubility”. For the same compound, the “duration of the psychological effects” value [9] was 20 minutes and the onset of action [9] was 1 to 2 min.
